Experimental data from PMC6291754 (Frontiers in Microbiology, 2018).
Values joined by “and” are separate entries in the source; they are usually repeats but may differ in a detail not shown here. Equal entries are not always repeated. Where two headings read alike, the source gives them in different places.

Legend:
[1] = target: A/PR/8/34 (PA 38I wild-type) neuraminidase (NA) (Influenza A virus, UniProt P03468); type: biochemical, influenza A(H1N1) virus
[2] = target: A/Chiba/1017/2009 (NA H275Y) neuraminidase (NA) (Influenza A virus, UniProt C7FH46, H275Y); type: biochemical, influenza A(H1N1)pdm09 virus
[3] = target: A/Chiba/1016/2009 (NA 275H wild-type) neuraminidase (NA) (Influenza A virus, UniProt C7FH46); type: biochemical, influenza A(H1N1)pdm09 virus
[4] = target: A/Fukui/45/2004 (NA E119V) neuraminidase (NA) (Influenza A virus, UniProt C6ELZ0, E119V); type: biochemical, influenza A(H3N2) virus
[5] = target: A/Fukui/20/2004 (NA 119E wild-type) neuraminidase (NA) (Influenza A virus, UniProt C6ELZ0); type: biochemical, influenza A(H3N2) virus
[6] = target: A/Kagoshima/2/2012 (NA R292K) neuraminidase (NA) (Influenza A virus, UniProt J9TKI7, R292K); type: biochemical, influenza A(H3N2) virus
[7] = target: A/Kagoshima/4/2012 (NA 292R wild-type) neuraminidase (NA) (Influenza A virus, UniProt J9TKI7); type: biochemical, influenza A(H3N2) virus
[8] = target: B/Perth/211/2001-197E (NA D197E) neuraminidase (NA) (Influenza B virus, UniProt Q3S340, D197E); type: biochemical
[9] = target: B/Perth/211/2001-197D (NA 197D wild-type) neuraminidase (NA) (Influenza B virus, UniProt Q3S340); type: biochemical
[10] = target: A/PR/8/34-PA/I38T neuraminidase (NA) (Influenza A virus, UniProt P03468)
[11] = tested on: A/PR/8/34-PA/I38T; type: cell-based, influenza A(H1N1) virus; conditions: read-out: IC50, plaque reduction
[12] = tested on: A/PR/8/34 (PA 38I wild-type); assay: microbe, parasite or virus in culture; type: cell-based, influenza A(H1N1) virus; conditions: Influenza A virus, PR/8, MDCK, 72 h, read-out: IC50, plaque reduction
[13] = tested on: A/Chiba/1017/2009 (NA H275Y); type: cell-based, influenza A(H1N1)pdm09 virus
[14] = tested on: A/Chiba/1016/2009 (NA 275H wild-type); assay: microbe, parasite or virus in culture; type: cell-based, influenza A(H1N1)pdm09 virus; conditions: Influenza A virus, MDCK, 72 h, read-out: IC50, plaque reduction
[15] = tested on: A/Fukui/45/2004 (NA E119V); type: cell-based, influenza A(H3N2) virus
[16] = tested on: A/Fukui/20/2004 (NA 119E wild-type); assay: microbe, parasite or virus in culture; type: cell-based, influenza A(H3N2) virus; conditions: Influenza A virus, MDCK, 72 h, read-out: IC50, plaque reduction
[17] = tested on: A/Kagoshima/2/2012 (NA R292K); type: cell-based, influenza A(H3N2) virus
[18] = tested on: A/Kagoshima/4/2012 (NA 292R wild-type); assay: microbe, parasite or virus in culture; type: cell-based, influenza A(H3N2) virus; conditions: Influenza A virus, MDCK, 72 h, read-out: IC50, plaque reduction
[19] = tested on: B/Perth/211/2001-197E (NA D197E); type: cell-based, influenza B virus
[20] = tested on: B/Perth/211/2001-197D (NA 197D wild-type); assay: microbe, parasite or virus in culture; type: cell-based; conditions: Influenza B virus, MDCK, 72 h, read-out: IC50, plaque reduction
[21] = tested on: A/PR/8/34-PA/I38T; type: cell-based, influenza A(H1N1) virus
[22] = tested on: A/PR/8/34 (PA 38I wild-type); assay: microbe, parasite or virus in culture; type: cell-based, influenza A(H1N1) virus; conditions: Influenza A virus, PR/8, MDCK, 24 h, read-out: IC50, focus reduction
[23] = tested on: A/Chiba/1017/2009 (NA H275Y); type: cell-based, influenza A(H1N1)pdm09 virus; remark: listed apart in the source
[24] = tested on: A/Chiba/1016/2009 (NA 275H wild-type); assay: microbe, parasite or virus in culture; type: cell-based, influenza A(H1N1)pdm09 virus; conditions: Influenza A virus, MDCK, 24 h, read-out: IC50, focus reduction
[25] = tested on: A/Fukui/45/2004 (NA E119V); type: cell-based, influenza A(H3N2) virus; remark: listed apart in the source
[26] = tested on: A/Fukui/20/2004 (NA 119E wild-type); assay: microbe, parasite or virus in culture; type: cell-based, influenza A(H3N2) virus; conditions: Influenza A virus, MDCK, 24 h, read-out: IC50, focus reduction
[27] = tested on: A/Kagoshima/2/2012 (NA R292K); type: cell-based, influenza A(H3N2) virus; remark: listed apart in the source
[28] = tested on: A/Kagoshima/4/2012 (NA 292R wild-type); assay: microbe, parasite or virus in culture; type: cell-based, influenza A(H3N2) virus; conditions: Influenza A virus, MDCK, 24 h, read-out: IC50, focus reduction
[29] = tested on: B/Perth/211/2001-197E (NA D197E); type: cell-based, influenza B virus; remark: listed apart in the source
[30] = tested on: B/Perth/211/2001-197D (NA 197D wild-type); assay: microbe, parasite or virus in culture; type: cell-based; conditions: Influenza B virus, MDCK, 24 h, read-out: IC50, focus reduction
[31] = tested on: influenza A(H1N1) viruses with PA I38T; conditions: cited from earlier work
[32] = tested on: influenza A(H1N1) virus with PA I38T; conditions: cited from earlier work
[33] = tested on: influenza A(H1N1) virus with PA I38F; conditions: cited from earlier work
[34] = tested on: influenza A(H1N1) virus with PA E23K; conditions: cited from earlier work
[35] = tested on: influenza B virus with PA G548R; conditions: cited from earlier work
[36] = tested on: influenza A(H3N2) virus with PA I38T; conditions: cited from earlier work
[37] = tested on: influenza A(H3N2) virus with PA I38M; conditions: cited from earlier work
[38] = tested on: influenza A(H3N2) virus with PA A37T; conditions: cited from earlier work
[39] = tested on: influenza A(H3N2) virus with PA E199G; conditions: cited from earlier work
[40] = tested on: influenza A(H3N2) virus with PA N412D; conditions: cited from earlier work
[41] = tested on: influenza A(H3N2) virus with PA V517A; conditions: cited from earlier work
[42] = tested on: influenza A(H3N2) virus with PA P632S; conditions: cited from earlier work
[43] = read-out: IC50, plaque reduction
[44] = read-out: IC50, focus reduction

CCC(CC)[C@H](NC(C)=O)[C@@H]1[C@H](O)[C@@H](C(=O)O)C[C@H]1N=C(N)N [Peramivir, peramivir]
IC50 [1]: 0.09 ± 0.01 nM
IC50 [2]: 28 ± 3.9 nM
IC50 [3]: 0.1 ± 0.1 nM
IC50 [4]: 0.2 ± 0.1 nM
NA inhibitor susceptibility (WHO criteria) [4]: 0.2 ± 0.1 NI
IC50 [5]: 0.2 ± 0.1 nM
IC50 [6]: 35.2 ± 2.6 nM
IC50 [7]: 0.1 ± 0.1 nM
IC50 [8]: 16.2 ± 6 nM
NA inhibitor susceptibility (WHO criteria) [8]: 16.2 ± 6.0 RI (key: normal inhibition (NI); RI: a 5- to 50-fold increase in IC50 for influenza B viruses; HRI: influenza B viruses with >50-fold increase in IC50)
IC50 ([9]; read-out: IC50): 0.4 ± 0.1 nM
IC50 [10]: 0.09 nM
IC50 fold-change [10]: 0.09 ± 0.01 (1.0) fold

O=C1c2c(O)c(=O)ccn2N([C@@H]2c3ccccc3SCc3c2ccc(F)c3F)[C@@H]2COCCN12 [Baloxavir, baloxavir acid]
IC50 [11]: 2.72 nM
IC50 [12]: 0.05 ± 0.02 nM
IC50 fold-change, plaque reduction [13]: 0.21 ± 0.02 (0.8) fold
IC50 [13, 43]: 0.21 nM
IC50 [14]: 0.27 ± 0.09 nM
IC50 fold-change, plaque reduction [15]: 0.15 ± 0.02 (0.4) fold
IC50 [15, 43]: 0.15 nM
IC50 [16]: 0.42 ± 0.15 nM
IC50 fold-change, plaque reduction [17]: 0.22 ± 0.09 (1.5) fold
IC50 [17, 43]: 0.22 nM
IC50 [18]: 0.15 ± 0.06 nM
IC50 fold-change, plaque reduction [19]: 5.68 ± 1.00 (2.6) fold
IC50 [19, 43]: 5.68 nM
IC50 [20]: 2.2 ± 0.28 nM
IC50 fold-change, focus reduction [21]: 44 fold
IC50 [21, 44]: 7.4 nM
IC50 [22]: 0.17 ± 0.03 nM
IC50 fold-change, focus reduction [23]: 0.53 ± 0.15 (1.0) fold
IC50 [23, 44]: 0.53 nM
IC50 [24]: 0.5 ± 0.02 nM
IC50 fold-change, focus reduction [25]: 0.62 ± 0.04 (0.5) fold
IC50 [25, 44]: 0.62 nM
IC50 [26]: 1.18 ± 0.49 nM
IC50 fold-change, focus reduction [27]: 0.59 ± 0.29 (2.0) fold
IC50 [27, 44]: 0.59 nM
IC50 [28]: 0.29 ± 0.08 nM
IC50 fold-change, focus reduction [29]: 5.63 ± 2.34 (1.0) fold
IC50 [29, 44]: 5.63 nM
IC50 [30]: 5.41 ± 1.99 nM
fold-change in EC50 [31]: 41 fold and 40 fold
fold higher EC50 [32]: 27.2 fold
fold higher EC50 [33]: 10.6 fold
fold higher EC50 [34]: 4.7 fold
effect of substitution on baloxavir susceptibility [35]: does not affect baloxavir susceptibility
fold higher EC50 [36]: 56.6 fold
fold higher EC50 [37]: 13.8 fold
fold higher EC50 [38]: 8.1 fold
fold higher EC50 [39]: 4.5 fold
effect of substitution on baloxavir susceptibility [40]: not affected
effect of substitution on baloxavir susceptibility [41]: not affected
effect of substitution on baloxavir susceptibility [42]: not affected

CO[C@@H]([C@@H]1OC(C(=O)O)=C[C@H](NC(=N)N)[C@H]1NC(C)=O)[C@H](O)CO [Laninamivir]
NA inhibitor susceptibility (WHO criteria) [2]: 0.3 ± 0.1 NI
NA inhibitor susceptibility (WHO criteria) [4]: 1.2 ± 0.1 NI
NA inhibitor susceptibility (WHO criteria) [6]: 3.9 ± 0.1 NI
NA inhibitor susceptibility (WHO criteria) [8]: 1.9 ± 0.1 NI
IC50 [9]: 1.3 ± 0.3 nM

CC(=O)N[C@H]1[C@H]([C@H](O)[C@H](O)CO)OC(C(=O)O)=C[C@@H]1N=C(N)N [Zanamivir, zanamivir]
NA inhibitor susceptibility (WHO criteria) [2]: 0.5 ± 0.1 NI
